In US9233961B2, “Compounds and compositions for the treatment of parasitic diseases” (Novartis AG, priority 2013, dated 2016):
Like-named read-outs stand apart in the source and are kept apart here.

Experiments:
[1] = test system: Leishmania donovani axenic amastigote parasites; test: Leishmania donovani axenic amastigote proliferation assay; assay type: cell-based; conditions: read-out: L. donovani amastigotes EC50
Method in brief: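 L. donovani axenic amastigotes (9600/well) in RPMI 1640 with 20% heat-inactivated FBS, folic acid, adenosine, glucose and 25 mM MES, pH 5.5, were incubated with compounds for 2 days at 37 °C, 5% CO2. Viability read by CellTiter-Glo luminescence; EC50 calculated.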

[2] = test system: Trypanosoma brucei Lister 427 strain bloodstream form; test: Assay for proliferation of kinetoplastid parasite Trypanosoma brucei; assay type: cell-based; conditions: read-out: T. brucei EC50
Excerpt: Assay for Proliferation of Kinetoplastid Parasite Trypanosoma brucei.
The proliferation is quantified by the addition of Cell Titer Glo (Promega®) a luminescent cell viability assay that measures the number of viable cells in culture based on the quantification of cellular ATP amount, which is an indicator of metabolically active cells.
The following assay illustrates the invention without in any way limiting the scope of the invention. This parasite proliferation assay measures the increase in parasite growth using an assay that measures ATP activity, Cell Titer Glo®.
Trypanosoma brucei Lister 427 strain is grown in HMI-9 Trypanosome media for T. brucei bloodstream form. 30 μl of HMI-9 media is dispensed into 384 well assay plates. 200 nl of compounds of the invention (in DMSO), including anti-trypanosome controls (Pentamidine and suramin), are then transferred into the assay plates, as well as DMSO alone to serve as a negative control for inhibition. Then 25 μl of a suspension of T. brucei culture in HMI-9 media is dispensed into the assay plates. The final concentration of parasites in culture corresponds to 1.7% of 0.5 uM ATP activity with Cell Titer Glo® in HMI-9 media. The plates are placed in a 37° C. incubator for 48 hours in an atmospheric environment containing 5% CO2. 40 μl of Cell Titer Glo® is dispensed into the plates. The plates are then read for luminescence. The percentage inhibition of 50%, EC50, is calculated for each compound.

[3] = test system: L. donovani HU3 strain in mouse peritoneal macrophages; test: Assay for proliferation of Leishmania parasites in mouse peritoneal macrophages; assay type: cell-based, Leishmania donovani; conditions: Leishmania donovani, Peritoneal macrophage
Method in brief: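 BALB/c peritoneal macrophages infected 24 h with L. donovani HU3 amastigotes taken from spleens of mice infected 9–11 weeks, then treated with compound for 5 days at 37° C, 5% CO2. Parasite nuclei counted by SYBR Green imaging after fixation; EC50 from percentage inhibition.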

[4] = Lister 427 bloodstream form, 48 hours
[5] = read-out: L. donavani Macrophage EC50

Cc1cnc2nc(-c3cc(NC(=O)N4CCCC4)ccc3Cl)[nH]c2c1 [Compound 245]
EC50 ([1]; axenic amastigotes in vitro): 1.77 µM | EC50 [2, 4]: 0.241 µM | EC50 [3, 5]: 18.8 µM

Cc1cnc2nc(-c3cc(NC(=O)N4CCNC4=O)ccc3Cl)[nH]c2c1 [Compound 246]
EC50 ([1]; axenic amastigotes in vitro): > 25 µM | EC50 [2, 4]: > 25 µM | EC50 [3, 5]: > 50 µM

Cc1cnc2nc(-c3cc(NC(=O)NC(C)C)ccc3Cl)[nH]c2c1 [Compound 249]
EC50 ([1]; axenic amastigotes in vitro): > 25 µM | EC50 [2, 4]: 14.1 µM | EC50 [3, 5]: > 30 µM

Cc1cnc2nc(-c3cc(NS(=O)(=O)c4cccs4)ccc3Cl)[nH]c2c1 [Compound 251]
EC50 ([1]; axenic amastigotes in vitro): > 25 µM | EC50 [2, 4]: > 18.2 µM | EC50 [3, 5]: > 50 µM

Cc1cnc2nc(-c3cc(NS(=O)(=O)Cc4ccc(C(F)(F)F)cc4)ccc3Cl)[nH]c2c1 [Compound 252]
EC50 ([1]; axenic amastigotes in vitro): > 25 µM | EC50 [2, 4]: > 25 µM | EC50 [3, 5]: > 50 µM

Cc1cnc2nc(-c3cc(NS(=O)(=O)c4c(C)noc4C)ccc3Cl)[nH]c2c1 [Compound 253]
EC50 ([1]; axenic amastigotes in vitro): > 24.9 µM | EC50 [2, 4]: > 25 µM | EC50 [3, 5]: > 28.4 µM

Cc1cnc2nc(-c3cc(NS(=O)(=O)N4CCCCC4)ccc3Cl)[nH]c2c1 [Compound 254]
EC50 ([1]; axenic amastigotes in vitro): > 25 µM | EC50 [2, 4]: > 25 µM | EC50 [3, 5]: > 50 µM

Cc1cnc2nc(-c3cc(NS(=O)(=O)CC(C)C)ccc3Cl)[nH]c2c1 [Compound 255]
EC50 ([1]; axenic amastigotes in vitro): > 25 µM | EC50 [2, 4]: > 25 µM | EC50 [3, 5]: > 50 µM

Cc1cnc2nc(-c3cc(N4CCOCC4)ccc3Cl)[nH]c2c1 [Compound 257]
EC50 ([1]; axenic amastigotes in vitro): > 25 µM | EC50 [2, 4]: > 25 µM | EC50 [3, 5]: > 50 µM

Cc1cnc2nc(-c3cc(Nc4ccc(-n5cncn5)nc4)ccc3Cl)[nH]c2c1 [Compound 258]
EC50 ([1]; axenic amastigotes in vitro): > 25 µM | EC50 [2, 4]: > 15.4 µM | EC50 [3, 5]: > 50 µM

Cc1cnc2nc(-c3cc(Nc4ccc(N(C)C)cn4)ccc3Cl)[nH]c2c1 [Compound 259]
EC50 ([1]; axenic amastigotes in vitro): > 25 µM | EC50 [2, 4]: > 25 µM | EC50 [3, 5]: > 50 µM

Cc1cnc2nc(-c3cc(Nc4ccc(N5CCOCC5)cn4)ccc3Cl)[nH]c2c1 [Compound 260]
EC50 ([1]; axenic amastigotes in vitro): > 25 µM | EC50 [2, 4]: 17.7 µM | EC50 [3, 5]: 29.3 µM

Cc1cnc2nc(-c3cc(Nc4cccc5c4CCN(S(C)(=O)=O)C5)ccc3Cl)[nH]c2c1 [Compound 261]
EC50 ([1]; axenic amastigotes in vitro): > 25 µM | EC50 [2, 4]: 15.9 µM | EC50 [3, 5]: > 50 µM

Cc1ccc(Nc2ccc(Cl)c(-c3nc4ncc(C)cc4[nH]3)c2)nc1 [Compound 262]
EC50 ([1]; axenic amastigotes in vitro): > 25 µM | EC50 [2, 4]: > 22.4 µM | EC50 [3, 5]: 13.5 µM

Cc1cnc2nc(-c3cc(Nc4ccc(C#N)cn4)ccc3Cl)[nH]c2c1 [Compound 263]
EC50 ([1]; axenic amastigotes in vitro): > 25 µM | EC50 [2, 4]: > 25 µM | EC50 [3, 5]: > 30.1 µM

Cc1cnc2nc(-c3cc(Nc4cccnc4N4CCOCC4)ccc3Cl)[nH]c2c1 [Compound 264]
EC50 ([1]; axenic amastigotes in vitro): > 25 µM | EC50 [2, 4]: 11.7 µM | EC50 [3, 5]: > 32.3 µM

Cc1cnc2nc(-c3cc(Nc4nccc5c4CCN(Cc4ccccc4)C5)ccc3Cl)[nH]c2c1 [Compound 265]
EC50 ([1]; axenic amastigotes in vitro): > 25 µM | EC50 [2, 4]: 8.2 µM | EC50 [3, 5]: 15.6 µM

O=C(Nc1ccc(Cl)c(-c2nc3ncc(C(F)(F)F)cc3[nH]2)c1)C1CCCC1 [Compound 282]
EC50 ([1]; axenic amastigotes in vitro): 17.5 µM | EC50 [2, 4]: 11.2 µM | EC50 [3, 5]: 3.3 µM

CNc1ccc(-c2cnc3nc(-c4cc(NC(=O)C5CCCC5)ccc4Cl)[nH]c3c2)cc1 [Compound 346]
EC50 ([1]; axenic amastigotes in vitro): 2.53 µM | EC50 [2, 4]: 0.56 µM | EC50 [3, 5]: 0.47 µM

CNc1ccc(-c2cnc3nc(-c4cc(NC(=O)c5cscn5)ccc4Cl)[nH]c3c2)cc1 [Compound 349]
EC50 ([1]; axenic amastigotes in vitro): 1.35 µM | EC50 [2, 4]: 0.171 µM | EC50 [3, 5]: 2.69 µM

CCOC(=O)Nc1ccc(Cl)c(-c2nc3ncc(-c4ccc5c(c4)CC(=O)N5)cc3[nH]2)c1 [Compound 378]
EC50 ([1]; axenic amastigotes in vitro): 0.69 µM | EC50 [2, 4]: 0.02 µM | EC50 [3, 5]: 3.3 µM

COC(=O)Nc1ccc(-c2cnc3nc(-c4cc(NC(=O)c5ccco5)ccc4Cl)oc3c2)cc1 [Compound 417]
EC50 ([1]; axenic amastigotes in vitro): 0.212 µM | EC50 [2, 4]: 0.056 µM | EC50 ([3]; read-out: L. donavani Macrophage EC50 (μM)): 0.49 µM

Cc1cnc2nc(-c3cc(NC(=O)Cc4cccc(F)c4F)ccc3Cl)[nH]c2c1 [Example 78, N-(4-chloro-3-{6-methyl-1H-imidazo[4,5-b]pyridin-2-yl}phenyl)-2-(2,3-difluorophenyl)acetamide]
EC50 ([1]; axenic amastigotes in vitro): > 25 µM | EC50 [2, 4]: > 6.6 µM | EC50 [3, 5]: > 50 µM

Cc1cnc2nc(-c3cc(NC(=O)OCCF)ccc3Cl)[nH]c2c1 [Example 214, 2-Fluoroethyl N-(4-chloro-3-{6-methyl-1H-imidazo[4,5-b]pyridin-2-yl}phenyl)carbamate]
EC50 [1]: 8.4 µM | EC50 ([2]; 48 h): 2.25 µM | EC50 [3, 5]: 27.5 µM

Cc1cnc2nc(-c3cc(NC(=O)N4CCOCC4)ccc3Cl)[nH]c2c1 [Example 237, N-(4-chloro-3-{6-methyl-1H-imidazo[4,5-b]pyridin-2-yl}phenyl)morpholine-4-carboxamide]
EC50 ([1]; axenic amastigotes in vitro): > 25 µM | EC50 [2, 4]: 8.7 µM | EC50 [3, 5]: > 50 µM

Cc1cnc2nc(-c3cc(NC(=O)NC4CCC4)ccc3Cl)[nH]c2c1 [Example 247, 1-(4-Chloro-3-{6-methyl-1H-imidazo[4,5-b]pyridin-2-yl}phenyl)-3-cyclobutylurea]
EC50 ([1]; axenic amastigotes in vitro): > 25 µM | EC50 [2, 4]: 6.4 µM | EC50 [3, 5]: 26.9 µM

Cc1cnc2nc(-c3cc(NS(=O)(=O)Cc4ccccc4)ccc3Cl)[nH]c2c1 [Example 250, N-(4-chloro-3-{6-methyl-1H-imidazo[4,5-b]pyridin-2-yl}phenyl)-1-phenylmethanesulfonamide]
EC50 ([1]; axenic amastigotes in vitro): > 25 µM | EC50 [2, 4]: > 25 µM | EC50 [3, 5]: > 50 µM

Cc1cnc2nc(-c3cc(Nc4ccc(Cl)cc4)ccc3Cl)[nH]c2c1 [Example 256, 4-chloro-N-(4-chlorophenyl)-3-{6-methyl-1H-imidazo[4,5-b]pyridin-2-yl}aniline]
EC50 ([1]; axenic amastigotes in vitro): > 25 µM | EC50 [2, 4]: > 18.1 µM | EC50 [3, 5]: > 50 µM

Cc1cnc2nc(-c3cc(NCc4ccco4)ccc3Cl)[nH]c2c1 [Example 266, 4-chloro-N-(furan-2-ylmethyl)-3-{6-methyl-1H-imidazo[4,5-b]pyridin-2-yl}aniline]
EC50 [1]: > 25 µM | EC50 ([2]; 48 h): > 25 µM | EC50 [3, 5]: > 40.5 µM

N#Cc1cnc2nc(-c3cc(NC(=O)c4ccco4)ccc3Cl)[nH]c2c1 [Example 286, N-(4-chloro-3-{6-cyano-1H-imidazo[4,5-b]pyridin-2-yl}phenyl)furan-2-carboxamide]
EC50 ([1]; axenic amastigotes in vitro): 0.61 µM | EC50 [2, 4]: 0.164 µM | EC50 [3, 5]: 7.1 µM

CNc1ccc(-c2cnc3nc(-c4cc(NC(=O)c5cc(C)cs5)ccc4Cl)[nH]c3c2)cc1 [Example 345, N-(4-chloro-3-{6-[4-(methylamino)phenyl]-1H-imidazo[4,5-b]pyridin-2-yl}phenyl)-4-methylthiophene-2-carboxamide]
EC50 ([1]; axenic amastigotes in vitro): 1.97 µM | EC50 [2, 4]: 0.277 µM | EC50 [3, 5]: 1.35 µM

NCc1cnc2nc(-c3cc(NC(=O)c4ccco4)ccc3Cl)[nH]c2c1 [Example 352, N-{3-[6-(aminomethyl)-1H-imidazo[4,5-b]pyridin-2-yl]-4-chlorophenyl}furan-2-carboxamide]
EC50 ([1]; axenic amastigotes in vitro): 0.253 µM | EC50 [2, 4]: 0.45 µM | EC50 [3, 5]: 49.5 µM
